According to PubChem BioAssay AID504473 (NMMLSC, 2011):
Activity calls are given as the source filed them.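 How the source made its calls: active means GFP ratio to DMSO above 1.5 or below 0.66; inactive means the rest.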

Experiments:
Assay in all cases: expression changes of rapamycin-responsive GFP fusion proteins, S. cerevisiae, GFP-tagged clone panel, flow cytometry (AID 504473);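 further: median GFP fluorescence of the cells measured by high-throughput flow cytometry; test concentration not given here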
YKR093W = settings: S. cerevisiae GFP-tagged strains, 3 h
YLR109W = settings: S. cerevisiae GFP-tagged strains, 3 h
YIL051C = settings: S. cerevisiae GFP-tagged strains, 3 h
YBR248C = settings: S. cerevisiae GFP-tagged strains, 3 h
YMR251W-A = settings: S. cerevisiae GFP-tagged strains, 3 h
YBR072W = settings: S. cerevisiae GFP-tagged strains, 3 h
YHR141C = settings: S. cerevisiae GFP-tagged strains, 3 h
YGR088W = settings: S. cerevisiae GFP-tagged strains, 3 h
YDL205C = settings: S. cerevisiae GFP-tagged strains, 3 h
YCR005C = settings: S. cerevisiae GFP-tagged strains, 3 h
YJR148W = settings: S. cerevisiae GFP-tagged strains, 3 h
YPL220W = settings: S. cerevisiae GFP-tagged strains, 3 h
YDR453C = settings: S. cerevisiae GFP-tagged strains, 3 h
[1] = molecular target: General amino acid permease AGP1 (Saccharomyces cerevisiae S288c) (UniProt P25376); settings: S. cerevisiae GFP-tagged strains, 3 h, YCL025C
Sequence of General amino acid permease AGP1 (Saccharomyces cerevisiae S288c) (P25376 whole entry, looked up): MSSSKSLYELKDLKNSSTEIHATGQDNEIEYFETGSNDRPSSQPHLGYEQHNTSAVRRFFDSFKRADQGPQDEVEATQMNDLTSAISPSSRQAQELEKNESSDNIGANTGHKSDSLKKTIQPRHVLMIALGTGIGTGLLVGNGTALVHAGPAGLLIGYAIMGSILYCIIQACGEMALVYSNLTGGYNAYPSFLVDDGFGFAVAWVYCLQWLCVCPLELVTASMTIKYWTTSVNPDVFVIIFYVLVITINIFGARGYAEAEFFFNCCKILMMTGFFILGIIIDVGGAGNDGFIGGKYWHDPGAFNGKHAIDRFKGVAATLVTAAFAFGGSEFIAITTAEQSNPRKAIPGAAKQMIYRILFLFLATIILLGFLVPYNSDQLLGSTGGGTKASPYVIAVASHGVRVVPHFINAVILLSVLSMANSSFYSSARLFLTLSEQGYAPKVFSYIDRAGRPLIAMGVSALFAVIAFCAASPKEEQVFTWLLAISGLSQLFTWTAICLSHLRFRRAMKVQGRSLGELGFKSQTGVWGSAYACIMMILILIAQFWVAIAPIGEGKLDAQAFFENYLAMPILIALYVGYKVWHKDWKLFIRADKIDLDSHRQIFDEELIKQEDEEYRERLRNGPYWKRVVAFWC

YER156C = settings: S. cerevisiae GFP-tagged strains, 3 h
YPL131W = settings: S. cerevisiae GFP-tagged strains, 3 h
YCL064C = settings: S. cerevisiae GFP-tagged strains, 3 h
YIL043C = settings: S. cerevisiae GFP-tagged strains, 3 h
YER081W = settings: S. cerevisiae GFP-tagged strains, 3 h
YPL111W = settings: S. cerevisiae GFP-tagged strains, 3 h
YAL060W = settings: S. cerevisiae GFP-tagged strains, 3 h
YDL130W = settings: S. cerevisiae GFP-tagged strains, 3 h
YER151C = settings: S. cerevisiae GFP-tagged strains, 3 h
YGL147C = settings: S. cerevisiae GFP-tagged strains, 3 h
YKR039W = settings: S. cerevisiae GFP-tagged strains, 3 h
YGR034W = settings: S. cerevisiae GFP-tagged strains, 3 h
YDR399W = settings: S. cerevisiae GFP-tagged strains, 3 h
YHR087W = settings: S. cerevisiae GFP-tagged strains, 3 h
YGR121C = settings: S. cerevisiae GFP-tagged strains, 3 h
YDL204W = settings: S. cerevisiae GFP-tagged strains, 3 h
YJL144W = settings: S. cerevisiae GFP-tagged strains, 3 h
YER117W = settings: S. cerevisiae GFP-tagged strains, 3 h
YFR031C-A = settings: S. cerevisiae GFP-tagged strains, 3 h
YOR375C = settings: S. cerevisiae GFP-tagged strains, 3 h
YMR307W = settings: S. cerevisiae GFP-tagged strains, 3 h
YJL056C = settings: S. cerevisiae GFP-tagged strains, 3 h
YML128C = settings: S. cerevisiae GFP-tagged strains, 3 h
YGL036W = settings: S. cerevisiae GFP-tagged strains, 3 h
YMR120C = settings: S. cerevisiae GFP-tagged strains, 3 h
YBR208C = settings: S. cerevisiae GFP-tagged strains, 3 h
YLR185W = settings: S. cerevisiae GFP-tagged strains, 3 h
YIL052C = settings: S. cerevisiae GFP-tagged strains, 3 h
YLL026W = settings: S. cerevisiae GFP-tagged strains, 3 h
YLR237W = settings: S. cerevisiae GFP-tagged strains, 3 h
YNR001C = settings: S. cerevisiae GFP-tagged strains, 3 h
YOR371C = settings: S. cerevisiae GFP-tagged strains, 3 h
YPR145W = settings: S. cerevisiae GFP-tagged strains, 3 h
YHR203C = settings: S. cerevisiae GFP-tagged strains, 3 h
YMR105C = settings: S. cerevisiae GFP-tagged strains, 3 h
YKL119C = settings: S. cerevisiae GFP-tagged strains, 3 h
YEL063C = settings: S. cerevisiae GFP-tagged strains, 3 h
YDR382W = settings: S. cerevisiae GFP-tagged strains, 3 h
YBR139W = settings: S. cerevisiae GFP-tagged strains, 3 h
YDR070C = settings: S. cerevisiae GFP-tagged strains, 3 h
YLL039C = settings: S. cerevisiae GFP-tagged strains, 3 h
YEL060C = settings: S. cerevisiae GFP-tagged strains, 3 h
YOR038C = settings: S. cerevisiae GFP-tagged strains, 3 h
YLR367W = settings: S. cerevisiae GFP-tagged strains, 3 h
YNL214W = settings: S. cerevisiae GFP-tagged strains, 3 h
YFR053C = settings: S. cerevisiae GFP-tagged strains, 3 h
YNL142W = settings: S. cerevisiae GFP-tagged strains, 3 h
YOR173W = settings: S. cerevisiae GFP-tagged strains, 3 h
YEL007W = settings: S. cerevisiae GFP-tagged strains, 3 h
YHR018C = settings: S. cerevisiae GFP-tagged strains, 3 h
YHR144C = settings: S. cerevisiae GFP-tagged strains, 3 h
YOL052C-A = settings: S. cerevisiae GFP-tagged strains, 3 h
YIL069C = settings: S. cerevisiae GFP-tagged strains, 3 h
YML034W = settings: S. cerevisiae GFP-tagged strains, 3 h
YGL135W = settings: S. cerevisiae GFP-tagged strains, 3 h
YAL061W = settings: S. cerevisiae GFP-tagged strains, 3 h
YLR142W = settings: S. cerevisiae GFP-tagged strains, 3 h
YIL066C = settings: S. cerevisiae GFP-tagged strains, 3 h
YHL021C = settings: S. cerevisiae GFP-tagged strains, 3 h
YKR094C = settings: S. cerevisiae GFP-tagged strains, 3 h
YOR063W = settings: S. cerevisiae GFP-tagged strains, 3 h
YEL071W = settings: S. cerevisiae GFP-tagged strains, 3 h
YNL068C = settings: S. cerevisiae GFP-tagged strains, 3 h
YOR136W = settings: S. cerevisiae GFP-tagged strains, 3 h
YNL015W = settings: S. cerevisiae GFP-tagged strains, 3 h
YLR058C = settings: S. cerevisiae GFP-tagged strains, 3 h
YPL150W = settings: S. cerevisiae GFP-tagged strains, 3 h
YML063W = settings: S. cerevisiae GFP-tagged strains, 3 h
YKL103C = settings: S. cerevisiae GFP-tagged strains, 3 h
YPL265W = settings: S. cerevisiae GFP-tagged strains, 3 h
YNL112W = settings: S. cerevisiae GFP-tagged strains, 3 h
YBL087C = settings: S. cerevisiae GFP-tagged strains, 3 h
YKL086W = settings: S. cerevisiae GFP-tagged strains, 3 h
YLR287C-A = settings: S. cerevisiae GFP-tagged strains, 3 h
YML004C = settings: S. cerevisiae GFP-tagged strains, 3 h
YCR002C = settings: S. cerevisiae GFP-tagged strains, 3 h
YGL062W = settings: S. cerevisiae GFP-tagged strains, 3 h
YGR019W = settings: S. cerevisiae GFP-tagged strains, 3 h
YOR182C = settings: S. cerevisiae GFP-tagged strains, 3 h
YPR184W = settings: S. cerevisiae GFP-tagged strains, 3 h
YML026C = settings: S. cerevisiae GFP-tagged strains, 3 h
YPR132W = settings: S. cerevisiae GFP-tagged strains, 3 h

Measured: GFP ratio to DMSO

CNc1nc(N)c([N+](=O)[O-])c(Nc2cccc(F)c2)n1
active: YKR093W 4.31 | YMR251W-A 1.64 | YBR072W 1.53 | YGR088W 1.71 | YCR005C 4.96 | YJR148W 3.13 | [1] 1.69 | YPL111W 2.48 | YAL060W 2.27 | YKR039W 4.91 | YHR087W 1.64 | YER117W 0.434 | YOR375C 1.83 | YML128C 1.68 | YBR208C 2.34 | YLL026W 1.75 | YNR001C 1.57 | YPR145W 1.98 | YMR105C 1.72 | YDR070C 2.45 | YEL060C 1.88 | YNL142W 9.4 | YOL052C-A 2.48 | YAL061W 1.57 | YHL021C 1.99 | YEL071W 2.83 | YNL015W 1.62 | YKL103C 2.2 | YPL265W 1.93 | YBL087C 0.567 | YGL062W 2.1 | YPR184W 1.61 | YML026C 0.557
inactive: YLR109W 1.39 | YIL051C 1.3 | YBR248C 1.03 | YHR141C 0.925 | YDL205C 0.958 | YPL220W 1.04 | YDR453C 1.5 | YER156C 1.08 | YPL131W 0.93 | YCL064C 1.15 | YIL043C 1.04 | YER081W 1.07 | YDL130W 0.917 | YER151C 1.03 | YGL147C 0.799 | YGR034W 0.814 | YDR399W 0.957 | YGR121C 1.38 | YDL204W 1.33 | YJL144W 1.39 | YFR031C-A 0.845 | YMR307W 0.845 | YJL056C 0.886 | YGL036W 0.845 | YMR120C 0.686 | YLR185W 0.893 | YIL052C 0.769 | YLR237W 0.775 | YOR371C 0.944 | YHR203C 0.857 | YKL119C 0.959 | YEL063C 1.23 | YDR382W 0.981 | YBR139W 1.12 | YLL039C 1.49 | YOR038C 1.15 | YLR367W 0.896 | YNL214W 0.945 | YFR053C 1.46 | YOR173W 1.45 | YEL007W 0.993 | YHR018C 1.14 | YHR144C 0.778 | YIL069C 0.764 | YML034W 0.944 | YGL135W 0.899 | YLR142W 0.857 | YIL066C 1.04 | YKR094C 0.898 | YOR063W 0.919 | YNL068C 1.09 | YOR136W 1.43 | YLR058C 1.02 | YPL150W 0.959 | YML063W 0.897 | YNL112W 0.894 | YKL086W 1.17 | YLR287C-A 0.753 | YML004C 1.28 | YCR002C 0.939 | YGR019W 1.42 | YOR182C 0.657 | YPR132W 0.841
